The values below are quoted from earlier work in US20200230082A1, “TOPICAL ACETAMINOPHEN FORMULATIONS FOR ITCH RELIEF” (UNIVERSITY OF MIAMI, priority 2017, published 2020).

The structures appear in SMILES notation. Where two headings read alike, the source gives them in different places.

Consider `CC(=O)Nc1ccc(O)cc1` [acetaminophen], for which the Solubility % runs as follows: (solvent: Ethanol) 37^1%; (solvent: PEG-400) 18.9^3%; (solvent: Propylene Glycol) 9.8^2%; (solvent: Water) 1.7^1%.
